These results are taken from ChEMBL document CHEMBL1152685, “Structural basis of the selectivity of the beta(2)-adrenergic receptor for fluorinated catecholamines” (Bioorg Med Chem, 2009).

The target in experiment [1] is Beta-2 adrenergic receptor (Homo sapiens, UniProt P07550, N293A). Kind of experiment: Displacement of [3H]dihydroalprenolol from human adrenergic beta2 receptor N293A mutant expressed in COS7 cell membrane.
Experiment [2] has as its target Beta-2 adrenergic receptor (Homo sapiens, UniProt P07550, V117C). Put plainly: Displacement of [3H]dihydroalprenolol from human adrenergic beta2 receptor V117C mutant expressed in COS7 cell membrane.
Experiment [3] has as its target Beta-2 adrenergic receptor (Homo sapiens, UniProt P07550, N293Q). Kind of experiment: Displacement of [3H]dihydroalprenolol from human adrenergic beta2 receptor N293Q mutant expressed in COS7 cell membrane.
Experiment [4] concerns the target Beta-2 adrenergic receptor (Homo sapiens, UniProt P07550, N293F). Put plainly: Displacement of [3H]dihydroalprenolol from human adrenergic beta2 receptor N293F mutant expressed in COS7 cell membrane.
Experiment [5] concerns the target Beta-2 adrenergic receptor (Homo sapiens, UniProt P07550, D192G/F193V). Kind of experiment: Displacement of [3H]dihydroalprenolol from human adrenergic beta2 receptor D192G, F193V mutant expressed in COS7 cell membrane.
Experiment [6] deals with Beta-2 adrenergic receptor (Homo sapiens, UniProt P07550, N293L). Put plainly: Displacement of [3H]dihydroalprenolol from human adrenergic beta2 receptor N293L mutant expressed in COS7 cell membrane.
Chain of Beta-2 adrenergic receptor (Homo sapiens, UniProt P07550, N293L) (P07550 whole entry N293L): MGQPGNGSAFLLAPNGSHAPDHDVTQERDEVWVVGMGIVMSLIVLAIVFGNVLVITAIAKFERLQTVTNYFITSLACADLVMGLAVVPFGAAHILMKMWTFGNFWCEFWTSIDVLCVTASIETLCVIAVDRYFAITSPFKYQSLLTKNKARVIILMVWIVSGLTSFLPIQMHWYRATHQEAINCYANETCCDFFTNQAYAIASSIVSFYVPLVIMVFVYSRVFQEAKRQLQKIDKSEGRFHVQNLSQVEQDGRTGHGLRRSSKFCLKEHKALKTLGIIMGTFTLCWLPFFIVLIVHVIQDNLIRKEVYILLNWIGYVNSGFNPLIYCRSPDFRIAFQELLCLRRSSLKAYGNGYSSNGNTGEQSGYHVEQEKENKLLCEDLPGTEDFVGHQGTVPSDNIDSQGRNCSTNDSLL
In experiment [7] the target is Beta-2 adrenergic receptor (Homo sapiens, UniProt P07550). Kind of experiment: Displacement of [3H]dihydroalprenolol from human adrenergic beta2 receptor expressed in COS7 cell membrane.
Chain of Beta-2 adrenergic receptor (Homo sapiens, UniProt P07550) (P07550 whole entry): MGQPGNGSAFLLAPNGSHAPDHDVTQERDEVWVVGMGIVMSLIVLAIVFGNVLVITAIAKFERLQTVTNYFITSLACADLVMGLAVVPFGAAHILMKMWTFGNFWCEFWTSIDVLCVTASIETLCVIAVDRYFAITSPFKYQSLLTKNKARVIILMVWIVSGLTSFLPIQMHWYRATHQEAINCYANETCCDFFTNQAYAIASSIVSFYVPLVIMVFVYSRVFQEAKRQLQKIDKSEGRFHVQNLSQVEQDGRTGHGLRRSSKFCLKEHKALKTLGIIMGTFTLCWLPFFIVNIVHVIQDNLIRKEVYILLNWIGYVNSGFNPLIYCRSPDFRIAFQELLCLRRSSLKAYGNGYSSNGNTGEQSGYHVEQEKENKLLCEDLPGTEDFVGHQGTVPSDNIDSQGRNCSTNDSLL

Chain of Beta-2 adrenergic receptor (Homo sapiens, UniProt P07550, D192G/F193V) (P07550 whole entry D192G/F193V): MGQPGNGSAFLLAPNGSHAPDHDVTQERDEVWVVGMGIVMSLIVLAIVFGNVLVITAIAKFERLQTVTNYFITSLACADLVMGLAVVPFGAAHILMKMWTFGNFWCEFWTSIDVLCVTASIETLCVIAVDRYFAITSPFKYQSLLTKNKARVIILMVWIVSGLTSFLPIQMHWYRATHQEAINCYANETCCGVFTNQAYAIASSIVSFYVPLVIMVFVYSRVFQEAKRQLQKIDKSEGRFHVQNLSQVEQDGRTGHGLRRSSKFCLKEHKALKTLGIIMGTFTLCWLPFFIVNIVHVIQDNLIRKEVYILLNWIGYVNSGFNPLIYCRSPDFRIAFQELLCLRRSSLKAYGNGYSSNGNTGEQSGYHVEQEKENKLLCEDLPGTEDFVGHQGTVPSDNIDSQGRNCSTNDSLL
Chain of Beta-2 adrenergic receptor (Homo sapiens, UniProt P07550, N293F) (P07550 whole entry N293F): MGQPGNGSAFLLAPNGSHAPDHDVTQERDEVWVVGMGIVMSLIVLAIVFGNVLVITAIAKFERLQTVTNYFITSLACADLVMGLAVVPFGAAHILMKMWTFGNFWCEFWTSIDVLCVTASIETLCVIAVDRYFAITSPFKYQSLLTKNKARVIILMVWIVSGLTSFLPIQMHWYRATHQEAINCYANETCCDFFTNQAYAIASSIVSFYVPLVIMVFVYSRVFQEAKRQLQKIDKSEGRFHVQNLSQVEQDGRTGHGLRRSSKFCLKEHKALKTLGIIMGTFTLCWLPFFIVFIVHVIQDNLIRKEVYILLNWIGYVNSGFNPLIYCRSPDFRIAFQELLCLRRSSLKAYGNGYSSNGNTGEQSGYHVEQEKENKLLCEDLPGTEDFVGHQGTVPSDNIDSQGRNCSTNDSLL
Chain of Beta-2 adrenergic receptor (Homo sapiens, UniProt P07550, N293A) (P07550 whole entry N293A): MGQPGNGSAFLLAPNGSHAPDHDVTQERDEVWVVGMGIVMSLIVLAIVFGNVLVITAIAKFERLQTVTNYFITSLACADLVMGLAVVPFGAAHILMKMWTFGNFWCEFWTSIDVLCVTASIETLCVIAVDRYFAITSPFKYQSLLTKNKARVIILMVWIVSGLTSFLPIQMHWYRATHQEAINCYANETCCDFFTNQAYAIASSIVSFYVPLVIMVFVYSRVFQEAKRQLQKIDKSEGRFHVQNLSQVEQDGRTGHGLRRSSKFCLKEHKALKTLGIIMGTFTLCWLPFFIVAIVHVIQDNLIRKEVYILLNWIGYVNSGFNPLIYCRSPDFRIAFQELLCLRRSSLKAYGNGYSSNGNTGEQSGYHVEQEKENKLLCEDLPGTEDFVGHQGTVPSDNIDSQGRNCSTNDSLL
Chain of Beta-2 adrenergic receptor (Homo sapiens, UniProt P07550, V117C) (P07550 whole entry V117C): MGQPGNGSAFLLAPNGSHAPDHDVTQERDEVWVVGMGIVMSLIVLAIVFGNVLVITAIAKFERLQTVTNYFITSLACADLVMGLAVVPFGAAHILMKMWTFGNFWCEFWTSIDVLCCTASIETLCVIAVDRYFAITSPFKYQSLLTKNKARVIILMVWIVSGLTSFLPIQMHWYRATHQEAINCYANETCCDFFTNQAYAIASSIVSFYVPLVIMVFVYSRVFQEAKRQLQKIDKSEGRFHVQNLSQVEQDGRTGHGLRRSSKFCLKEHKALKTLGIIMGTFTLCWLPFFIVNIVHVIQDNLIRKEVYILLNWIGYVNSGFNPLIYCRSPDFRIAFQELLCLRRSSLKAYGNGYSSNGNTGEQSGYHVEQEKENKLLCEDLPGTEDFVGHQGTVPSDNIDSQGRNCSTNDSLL
Chain of Beta-2 adrenergic receptor (Homo sapiens, UniProt P07550, N293Q) (P07550 whole entry N293Q): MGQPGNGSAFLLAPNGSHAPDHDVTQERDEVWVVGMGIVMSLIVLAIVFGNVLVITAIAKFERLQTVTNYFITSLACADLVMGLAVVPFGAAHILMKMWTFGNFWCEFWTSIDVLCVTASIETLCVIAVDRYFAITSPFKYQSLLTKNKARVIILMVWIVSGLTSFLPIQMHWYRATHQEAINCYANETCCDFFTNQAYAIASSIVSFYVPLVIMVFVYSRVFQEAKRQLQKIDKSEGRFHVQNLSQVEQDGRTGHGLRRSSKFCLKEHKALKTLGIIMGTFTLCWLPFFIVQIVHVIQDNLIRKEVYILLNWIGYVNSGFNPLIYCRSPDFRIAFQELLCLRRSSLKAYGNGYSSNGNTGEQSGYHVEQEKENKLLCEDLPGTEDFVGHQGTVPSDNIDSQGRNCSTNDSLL

On to `NC[C@H](O)c1cc(O)c(O)cc1F`, for which the Ki in experiment [1] was found to be 319 µM; in experiment [2] it was 39.8 µM; in experiment [3] it was 68.9 µM; in experiment [4], 216 µM; in experiment [5] it was 19.5 µM; in experiment [6], 117 µM. In experiment [7], the Ki was determined as 15.8 µM.

Regarding `NC[C@H](O)c1ccc(O)c(O)c1F`, the inhibition constant (Ki) was 5450 µM in experiment [1]; greater than 2000 µM in experiment [2]; 3330 µM in experiment [3]; 70.1 µM in experiment [4]; greater than 2000 µM in experiment [5]; 188 µM in experiment [6]. Moreover, the Ki in experiment [7] was 1160 µM.
